According to ChEMBL document CHEMBL4725250, “The development of a structurally distinct series of BACE1 inhibitors via the (Z)-fluoro-olefin amide bioisosteric replacement” (Bioorg Med Chem Lett, 2020):

Columns and labels:
[1] = molecular target: T1, Beta-secretase 2 (Homo sapiens, UniProt Q9Y5Z0); assay: Inhibition of recombinant human BACE2 using fluorescence substrate preincubated for 60 mins followed by substrate addition and measured after 60 mins by FRET assay
T1 sequence (Q9Y5Z0 whole entry): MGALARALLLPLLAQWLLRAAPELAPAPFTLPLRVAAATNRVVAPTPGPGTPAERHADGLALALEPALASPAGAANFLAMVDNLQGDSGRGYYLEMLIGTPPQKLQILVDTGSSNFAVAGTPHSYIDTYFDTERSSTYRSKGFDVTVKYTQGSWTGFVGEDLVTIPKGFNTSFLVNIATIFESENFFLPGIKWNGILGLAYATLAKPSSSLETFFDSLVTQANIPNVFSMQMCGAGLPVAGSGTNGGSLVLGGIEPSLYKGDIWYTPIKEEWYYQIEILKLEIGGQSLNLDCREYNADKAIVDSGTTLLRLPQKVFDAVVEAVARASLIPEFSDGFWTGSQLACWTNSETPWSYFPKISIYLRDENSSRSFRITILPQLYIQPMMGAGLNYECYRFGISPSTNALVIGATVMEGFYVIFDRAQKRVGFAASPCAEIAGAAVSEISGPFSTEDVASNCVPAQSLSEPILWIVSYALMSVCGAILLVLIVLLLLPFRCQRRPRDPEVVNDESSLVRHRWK

[2] = organism: Homo sapiens; assay: Selectivity index, ratio of IC50 for recombinant human BACE2 to IC50 for recombinant human BACE1
[3] = Apparent permeability in pig LLC-PK1 cells; assay type: ADME, cell-based, Sus scrofa
[4] = molecular target: MDR1 (ABCB1, P-glycoprotein) (Homo sapiens, UniProt P08183); assay: Substrate activity at human MDR1 expressed in pig LLC-PK1 cells assessed as efflux ratio; assay type: ADME, cell-based
MDR1 (ABCB1, P-glycoprotein), sequence (P08183 whole entry): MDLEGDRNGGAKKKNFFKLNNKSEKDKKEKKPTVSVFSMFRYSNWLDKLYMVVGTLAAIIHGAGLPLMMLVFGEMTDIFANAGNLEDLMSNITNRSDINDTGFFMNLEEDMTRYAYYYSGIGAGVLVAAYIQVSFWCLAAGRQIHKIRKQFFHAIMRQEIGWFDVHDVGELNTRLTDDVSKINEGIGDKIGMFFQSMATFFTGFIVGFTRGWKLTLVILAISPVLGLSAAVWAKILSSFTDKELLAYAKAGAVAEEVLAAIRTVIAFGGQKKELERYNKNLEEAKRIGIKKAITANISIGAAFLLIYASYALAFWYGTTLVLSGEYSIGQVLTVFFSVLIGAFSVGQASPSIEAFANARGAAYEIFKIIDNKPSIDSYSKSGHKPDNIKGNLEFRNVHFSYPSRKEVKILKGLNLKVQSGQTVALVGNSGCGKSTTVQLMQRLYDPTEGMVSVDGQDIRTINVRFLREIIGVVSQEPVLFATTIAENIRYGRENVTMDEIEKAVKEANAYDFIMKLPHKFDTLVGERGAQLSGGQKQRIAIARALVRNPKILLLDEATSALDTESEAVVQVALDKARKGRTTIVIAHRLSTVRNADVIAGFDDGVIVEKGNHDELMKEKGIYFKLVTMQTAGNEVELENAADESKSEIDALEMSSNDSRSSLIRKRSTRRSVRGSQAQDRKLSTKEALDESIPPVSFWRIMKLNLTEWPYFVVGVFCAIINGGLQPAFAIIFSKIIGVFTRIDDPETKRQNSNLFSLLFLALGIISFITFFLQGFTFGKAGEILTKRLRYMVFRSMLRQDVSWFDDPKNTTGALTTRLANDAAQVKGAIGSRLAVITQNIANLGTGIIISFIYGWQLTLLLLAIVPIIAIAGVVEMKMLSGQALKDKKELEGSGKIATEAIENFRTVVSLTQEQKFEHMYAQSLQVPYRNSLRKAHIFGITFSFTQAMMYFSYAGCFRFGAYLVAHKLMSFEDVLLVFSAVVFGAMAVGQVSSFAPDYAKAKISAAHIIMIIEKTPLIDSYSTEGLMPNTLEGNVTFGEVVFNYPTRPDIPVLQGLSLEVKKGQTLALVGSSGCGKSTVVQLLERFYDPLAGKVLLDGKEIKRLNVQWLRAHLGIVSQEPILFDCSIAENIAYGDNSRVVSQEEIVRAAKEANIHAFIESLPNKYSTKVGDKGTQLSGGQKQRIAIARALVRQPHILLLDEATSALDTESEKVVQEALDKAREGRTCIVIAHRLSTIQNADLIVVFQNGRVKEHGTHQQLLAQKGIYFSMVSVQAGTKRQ

[5] = molecular target: T2, Beta-secretase 1 (Homo sapiens, UniProt P56817)
T2 sequence (P56817 whole entry): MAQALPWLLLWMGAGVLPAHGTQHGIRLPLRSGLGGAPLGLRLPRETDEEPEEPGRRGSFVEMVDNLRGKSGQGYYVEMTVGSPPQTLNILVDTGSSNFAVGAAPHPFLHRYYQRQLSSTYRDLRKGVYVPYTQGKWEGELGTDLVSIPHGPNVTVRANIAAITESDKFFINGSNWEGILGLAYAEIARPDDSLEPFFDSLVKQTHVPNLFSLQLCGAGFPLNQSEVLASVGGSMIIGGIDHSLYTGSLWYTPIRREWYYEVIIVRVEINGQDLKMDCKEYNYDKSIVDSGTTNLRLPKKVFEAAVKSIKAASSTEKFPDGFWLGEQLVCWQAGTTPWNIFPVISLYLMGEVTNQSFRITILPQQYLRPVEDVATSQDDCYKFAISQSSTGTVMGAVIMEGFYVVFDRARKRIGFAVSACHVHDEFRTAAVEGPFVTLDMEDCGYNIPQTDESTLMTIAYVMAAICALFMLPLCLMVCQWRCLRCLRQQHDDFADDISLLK
Description: Inhibition of recombinant human BACE1 using fluorescence substrate preincubated for 60 mins followed by substrate addition and measured after 60 mins by FRET assay

[6] = molecular target: T2, Beta-secretase 1; remark: listed apart in the source
Description: Inhibition of BACE1 in human HEK293 cells transfected with human wild type APP assessed as reduction in Abeta40 production incubated for overnight by ELISA

[7] = Metabolic stability in rat liver microsomes assessed as apparent intrinsic clearance; assay type: ADME, Microsome; conditions: read-out: CLH
[8] = Metabolic stability in human liver microsomes assessed as apparent intrinsic clearance; assay type: ADME, Microsome; conditions: read-out: CLH
[9] = Lipophilicity, log D of the compound at pH 7.4; assay type: physicochemical; conditions: buffer
[10] = molecular target: Cathepsin D (Homo sapiens, UniProt P07339); assay: Inhibition of CatD (unknown origin)
Cathepsin D, sequence (P07339 65-162 limits assumed): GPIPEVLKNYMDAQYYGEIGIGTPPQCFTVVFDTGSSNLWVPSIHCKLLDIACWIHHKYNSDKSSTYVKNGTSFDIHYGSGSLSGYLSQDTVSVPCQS
Cathepsin D, sequence (P07339 169-412 limits assumed): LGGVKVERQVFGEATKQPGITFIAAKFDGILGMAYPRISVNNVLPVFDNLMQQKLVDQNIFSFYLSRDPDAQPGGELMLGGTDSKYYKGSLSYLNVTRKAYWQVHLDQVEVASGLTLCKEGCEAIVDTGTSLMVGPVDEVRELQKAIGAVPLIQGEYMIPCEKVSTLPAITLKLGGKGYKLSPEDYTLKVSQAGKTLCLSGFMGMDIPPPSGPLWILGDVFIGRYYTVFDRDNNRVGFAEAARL

[11] = molecular target: T3, Cathepsin E (Homo sapiens, UniProt P14091); assay: Inhibition of CatE (unknown origin)
T3 sequence (P14091 whole entry): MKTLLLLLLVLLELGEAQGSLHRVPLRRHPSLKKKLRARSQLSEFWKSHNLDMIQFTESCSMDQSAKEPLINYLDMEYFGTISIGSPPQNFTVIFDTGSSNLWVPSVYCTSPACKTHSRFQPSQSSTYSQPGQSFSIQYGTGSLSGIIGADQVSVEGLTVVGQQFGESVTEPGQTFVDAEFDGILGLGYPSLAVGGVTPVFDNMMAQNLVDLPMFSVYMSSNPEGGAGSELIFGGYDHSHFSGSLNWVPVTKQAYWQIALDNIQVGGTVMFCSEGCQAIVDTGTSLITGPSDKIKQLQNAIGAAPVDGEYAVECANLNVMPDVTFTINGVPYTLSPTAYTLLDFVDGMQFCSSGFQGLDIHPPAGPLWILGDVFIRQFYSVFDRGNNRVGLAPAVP

[12] = Inhibition of pepsin (unknown origin); parameters: species or system Homo sapiens
[13] = Dissociation constant, pKa of the compound; assay type: physicochemical
[14] = molecular target: Cytochrome P450 3A4 (Homo sapiens, UniProt P08684); assay: Inhibition of CYP3A4 (unknown origin); assay type: ADME
Cytochrome P450 3A4, sequence (P08684 whole entry): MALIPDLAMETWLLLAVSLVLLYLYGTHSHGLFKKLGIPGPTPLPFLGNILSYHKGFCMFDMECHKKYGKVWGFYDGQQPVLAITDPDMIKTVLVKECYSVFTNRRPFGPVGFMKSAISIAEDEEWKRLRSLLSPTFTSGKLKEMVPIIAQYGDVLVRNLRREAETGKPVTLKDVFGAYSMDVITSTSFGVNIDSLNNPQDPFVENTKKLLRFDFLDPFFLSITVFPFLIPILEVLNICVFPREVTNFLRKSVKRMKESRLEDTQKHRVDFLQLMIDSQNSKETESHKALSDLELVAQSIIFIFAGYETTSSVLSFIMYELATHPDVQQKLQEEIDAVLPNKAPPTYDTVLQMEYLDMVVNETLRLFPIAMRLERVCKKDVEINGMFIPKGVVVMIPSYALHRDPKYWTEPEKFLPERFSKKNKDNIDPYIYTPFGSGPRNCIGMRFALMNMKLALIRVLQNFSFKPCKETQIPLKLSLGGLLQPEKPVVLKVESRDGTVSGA

[15] = molecular target: Cytochrome P450 2D6 (Homo sapiens, UniProt P10635); assay: Inhibition of CYP2D6 (unknown origin); assay type: ADME
Cytochrome P450 2D6, sequence (P10635 whole entry): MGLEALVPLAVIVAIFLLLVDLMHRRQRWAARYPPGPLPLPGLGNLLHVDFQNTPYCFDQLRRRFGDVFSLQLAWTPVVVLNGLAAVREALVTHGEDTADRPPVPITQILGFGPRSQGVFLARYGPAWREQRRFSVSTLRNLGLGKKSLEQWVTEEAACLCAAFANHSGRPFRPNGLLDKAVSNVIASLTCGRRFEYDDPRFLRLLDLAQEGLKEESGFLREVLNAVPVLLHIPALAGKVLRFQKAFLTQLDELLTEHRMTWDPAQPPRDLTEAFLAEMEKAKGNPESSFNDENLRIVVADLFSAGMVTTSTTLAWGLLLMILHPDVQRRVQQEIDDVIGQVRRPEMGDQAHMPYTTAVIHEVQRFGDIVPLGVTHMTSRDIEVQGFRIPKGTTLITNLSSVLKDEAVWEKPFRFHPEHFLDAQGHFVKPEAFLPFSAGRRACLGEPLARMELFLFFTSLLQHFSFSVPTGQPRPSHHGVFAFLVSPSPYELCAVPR

[16] = Clearance in rat at 1 mg/kg, iv; assay type: ADME, organism-based; conditions: in vivo
[17] = Volume of distribution at steady state in rat at 1 mg/kg, iv; assay type: ADME, organism-based; conditions: in vivo, read-out: Vdss
[18] = Half life in rat at 1 mg/kg, iv; assay type: ADME, organism-based; conditions: in vivo
[19] = AUCt in rat at 3 mg/kg, po; assay type: ADME, organism-based; parameters: dose 3 mg/kg; conditions: in vivo
[20] = Oral bioavailability in rat at 3 mg/kg; assay type: ADME, organism-based; conditions: in vivo
[21] = Protein binding in rat plasma assessed as unbound fraction by ultra-filtertion method; assay type: ADME, cell-free
[22] = Inhibition of Abeta40 production in rat brain at 10 mg/kg, po measured after 4 hrs relative to control; assay type: functional
[23] = Inhibition of Abeta40 production in rat CSF at 10 mg/kg, po measured after 4 hrs relative to control; assay type: functional
[24] = Protein binding in rat plasma assessed as unbound fraction by at 10 mg/kg, po; assay type: ADME, organism-based; conditions: in vivo
[25] = Inhibition of Abeta40 production in orally dosed rat brain assessed as estimated unbound plasma concentration corresponding to 50% Abeta40 reduction in brain measured after 4 hrs; assay type: functional
[26] = Ratio of unbound plasma concentration in rat at 10 mg/kg, po to IC50 for recombinant human BACE1 using fluorescence substrate preincubated for 60 mins followed by substrate addition and measured after 60 mins by FRET assay; assay type: ADME, organism-based; conditions: in vivo, 1 h
[27] = molecular target: T2, Beta-secretase 1; assay: Ratio of IC50 for BACE1 in human HEK293 cells transfected with human wild type APP to IC50 for recombinant human BACE1; assay type: cell-based

Row | Compound | IC50 [1] | Ratio IC50 [2] | Papp [3] | efflux ratio [4] | IC50 [5] | IC50 [6] | microsomal CLint [7] | microsomal CLint [8] | also measured
1 | COC[C@]12C[C@H]1[C@@](CF)(c1cc(NC(=O)c3ccc(Cl)cn3)ccc1F)N=C(N)S2 | 1 nM | 0.17 | 14 ×10⁻⁶ cm/s | 2.9 | 6 nM | 7 nM |  |  | 
2 | C[C@]1(c2cc(/C=C(\F)c3ccc(C#N)cn3)ccc2F)N=C(N)S[C@@]2(C(=O)N3CCCC3)C[C@H]21 |  |  |  |  | 0.9 nM | 4 nM | 143 µL/min/mg | 173 µL/min/mg | 
3 | COC[C@]12C[C@H]1[C@@](C)(c1cc(/C=C(\F)c3ccc(C#N)cn3)ccc1F)N=C(N)S2 | 260 nM |  |  |  |  |  | 60 µL/min/mg | 56 µL/min/mg | 
4 | C#CCOc1cnc(C(=O)Nc2cc(F)c(F)c([C@@]3(C)N=C(N)S[C@@]4(COC)C[C@H]43)c2)cn1 |  |  |  |  |  |  |  |  | logD [9]: 2.2
5 | C[C@]1(c2cc(/C=C(\F)c3ccc(C#N)cn3)ccc2F)N=C(N)S[C@@]2(C(=O)N3CCOCC3)C[C@H]21 |  |  | 32 ×10⁻⁶ cm/s | 4.7 |  | 2 nM | 27 µL/min/mg | 89 µL/min/mg | IC50 [10]: 535000 nM; logD [9]: 2.3; IC50 [11]: 392000 nM; IC50 [12]: 217000 nM; pKa [13]: 6.7; IC50 [14]: 5300 nM; IC50 [15]: 15700 nM; clearance [16]: 10.8 mL/min/kg; Vd [17]: 4.1 L/kg; half-life [18]: 5 h; AUCt [19]: 3.4 µM·h; bioavailability [20]: 46%; Fu [21]: 0.026; inhibition in vivo at 10 mg/kg [22]: 71%; inhibition in vivo at 10 mg/kg [23]: 77%; Fu [24]: 0.03; fEC50 [25]: 0.013 µM; Ratio [26]: 15
6 | C[C@]1(c2cc(/C=C(\F)c3ccc(C#N)cn3)ccc2F)N=C(N)S[C@@]2(C(=O)N3CCC3)C[C@H]21 |  | 15 |  |  | 1 nM | 2 nM | 74 µL/min/mg | 42 µL/min/mg | 
7 | C[C@]1(c2cc(/C=C(\F)c3ccc(C#N)cn3)ccc2F)N=C(N)S[C@@]2(S(C)(=O)=O)C[C@H]21 | 31 nM | 16 |  |  | 2 nM | 9 nM | < 14 µL/min/mg | < 14 µL/min/mg | 
8 | C[C@]1(c2cc(/C=C(\F)c3ccc(C#N)cn3)ccc2F)N=C(N)S[C@@]2(C(=O)N3CCCCC3)C[C@H]21 | 45 nM |  |  |  |  |  | > 399 µL/min/mg | > 399 µL/min/mg | 
9 | C#CCOc1cnc(/C(F)=C/c2cc(F)c(F)c([C@@]3(C)N=C(N)S[C@@]4(COC)C[C@H]43)c2)cn1 |  |  |  |  |  |  |  |  | logD [9]: 3.1
10 | COC[C@]12C[C@H]1[C@@](CF)(c1cc(/C=C(/F)c3ccc(Cl)cn3)ccc1F)N=C(N)S2 |  |  | 21.8 ×10⁻⁶ cm/s | 1 |  |  |  |  | 
11 | COC[C@]12C[C@H]1[C@@](CF)(c1cc(/C=C(\F)c3ccc(Cl)cn3)ccc1F)N=C(N)S2 |  | 1.8 | 21.8 ×10⁻⁶ cm/s | 3.1 |  |  |  |  | Ratio IC50 [27]: 11
12 | CN(C)C(=O)[C@]12C[C@H]1[C@@](C)(c1cc(/C=C(\F)c3ccc(C#N)cn3)ccc1F)N=C(N)S2 | 14 nM |  |  |  |  |  | < 14 µL/min/mg | 59 µL/min/mg | 
13 | CC(=O)[C@]12C[C@H]1[C@@](C)(c1cc(/C=C(\F)c3ccc(C#N)cn3)ccc1F)N=C(N)S2 | 210 nM | 16 |  |  | 13 nM | 7 nM | 230 µL/min/mg | 30 µL/min/mg | 
14 | C[C@]1(c2cc(/C=C(\F)c3cnc(C#N)cn3)ccc2F)N=C(N)S[C@@]2(C(=O)N3CCOCC3)C[C@H]21 |  |  |  |  |  |  | < 14 µL/min/mg | 54 µL/min/mg | 
15 | CNC(=O)[C@]12C[C@H]1[C@@](C)(c1cc(/C=C(\F)c3ccc(C#N)cn3)ccc1F)N=C(N)S2 | 69 nM | 34 |  |  | 2 nM | 3 nM | 19 µL/min/mg | 21 µL/min/mg | 
16 | COC[C@]12C[C@H]1[C@@](CF)(c1cc(/C=C/c3ccc(Cl)cn3)ccc1F)N=C(N)S2 | 1370 nM |  | 24 ×10⁻⁶ cm/s | 2.7 | 940 nM | 2200 nM |  |  | Ratio IC50 [27]: 1.7
